The source of these data is patent US11572399B2, “Long-acting GIP peptide analogues” (University of Copenhagen, priority 2017, dated 2023).

For the test, the target named is T1, human GIP receptor (Homo sapiens, UniProt P48546).
T1 construct: host or cells: COS-7, transient transfection (calcium phosphate), cDNA in pCMV-Script
T1 sequence (P48546 22-466): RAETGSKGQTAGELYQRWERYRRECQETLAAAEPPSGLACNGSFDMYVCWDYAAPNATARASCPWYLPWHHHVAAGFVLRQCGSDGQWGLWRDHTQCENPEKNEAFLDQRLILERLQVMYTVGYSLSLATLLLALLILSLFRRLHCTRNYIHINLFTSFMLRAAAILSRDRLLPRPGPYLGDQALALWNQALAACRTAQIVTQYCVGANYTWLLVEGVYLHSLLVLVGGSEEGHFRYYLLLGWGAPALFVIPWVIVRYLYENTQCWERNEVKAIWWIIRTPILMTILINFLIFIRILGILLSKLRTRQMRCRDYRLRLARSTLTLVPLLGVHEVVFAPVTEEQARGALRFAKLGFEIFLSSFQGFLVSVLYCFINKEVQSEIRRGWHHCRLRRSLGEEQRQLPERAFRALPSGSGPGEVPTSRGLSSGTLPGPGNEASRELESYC
Description: cAMP accumulation assay, agonism (ligand alone). In kind it is cell-based. Particulars: COS-7 cells, Table 1; for Emax: COS-7, intrinsic cAMP activity; for EC50: read-out: cAMP agonism nM (EC50). The protocol:
COS-7 cells were cultured at 10% CO2 and 37° C. in Dulbecco's modified Eagle's medium 1885 supplemented with 10% fetal bovine serum, 2 mM glutamine, 180 units/ml penicillin, and 45 µg/ml streptomycin. Transient transfection of the COS-7 cells for cAMP accumulation and competition binding was performed using the calcium phosphate precipitation method with the addition of chloroquine^46-47.
Transient transfected COS-7 cells expressing the human GIP receptor were seeded in white 96-well plates with a density of 3.5*10^4/well. The day after, the cells were washed twice with Hepes buffered saline (HBS) buffer and incubated with HBS and 1 mM 3-isobutyl-1-methylxanthine (IBMX) for 30 min at 37° C. To test for agonistic properties, ligands were added and incubated for 30 min at 37° C. In order to test for antagonistic properties, the cells were preincubated with the antagonists for 10 min prior to the addition of the agonist and subsequent incubated for 20 additional min. The HitHunter™ cAMP XS assay (DiscoveRx) was carried out according to the manufacturer's instructions.
IC50, EC50, and Ki values were determined by nonlinear regression. These were carried out with the GraphPad Prism 6.0 software (GraphPad, San Diego, Calif., USA) and Microsoft Excel™. Ki values were based on the formula for one class of binding sites in homologous competition binding studies and the Cheng Prussoffs formula, respectively (DeBlasi et al., 1989). To determine the HSA binding potential, the fold change in affinity (as determined by IC50) was calculated as IC50 (plus HSA)/IC50 (minus HSA).
For orientation: cAMP levels reflect the balance of adenylyl cyclase and phosphodiesterase activity.

Each structure is given as a SMILES string. Peptide text beside a SMILES is read from it. * marks the point of attachment. C16 diacid = O=C(O)CCCCCCCCCCCCCCC(=O)*; Palmitoyl = CCCCCCCCCCCCCCCC(=O)*

Usually Emax stands for the size of the effect at its maximum, as opposed to the concentration needed. Molecule `CCCCCCCCCCCCCCCC(=O)NCCCC[C@H](NC(=O)[C@@H](NC(=O)[C@H](CCCNC(=N)N)NC(=O)[C@H](CC(=O)O)NC(=O)[C@H](CCSC)NC(=O)[C@H](C)NC(=O)[C@@H](NC(=O)[C@H](CO)NC(=O)[C@H](Cc1ccc(O)cc1)NC(=O)[C@H](CC(=O)O)NC(=O)[C@H](CO)NC(=O)[C@@H](NC(=O)[C@H](Cc1ccccc1)NC(=O)[C@@H](NC(=O)CNC(=O)[C@@H](N)CCC(=O)O)[C@@H](C)O)[C@@H](C)CC)[C@@H](C)CC)[C@@H](C)CC)C(=O)N[C@@H](CCC(N)=O)C(=O)N[C@@H](CCC(N)=O)C(=O)N[C@@H](CC(=O)O)C(=O)N[C@@H](Cc1ccccc1)C(=O)N[C@H](C(=O)N[C@@H](CC(N)=O)C(=O)N[C@@H](Cc1c[nH]c2ccccc12)C(=O)N[C@@H](CC(C)C)C(=O)N[C@@H](CC(C)C)C(=O)N[C@@H](C)C(=O)N[C@@H](CCC(N)=O)C(=O)N[C@@H](CCCNC(=N)N)C(N)=O)C(C)C` [AT144, [hGIP(3-30)NH2[K16R; H18K; K30R]-C16/18]] (H-EGTFISDYSIAMDRIK(Palmitoyl)QQDFVNWLLAQR-NH2; N-terminus assumed) gave an Emax of 0%. As usually defined, the EC50 is the concentration needed to bring the measured effect to its halfway point. As for `CC[C@H](C)[C@H](NC(=O)[C@H](CO)NC(=O)[C@H](Cc1ccc(O)cc1)NC(=O)[C@H](CC(=O)O)NC(=O)[C@H](CO)NC(=O)[C@@H](NC(=O)[C@H](Cc1ccccc1)NC(=O)[C@@H](NC(=O)CNC(=O)[C@H](CCC(=O)O)NC(=O)CCCCCCCCCCC(=O)O)[C@@H](C)O)[C@@H](C)CC)C(=O)N[C@@H](C)C(=O)N[C@@H](CCSC)C(=O)N[C@@H](CC(=O)O)C(=O)N[C@@H](CCCCN)C(=O)N[C@H](C(=O)N[C@@H](CCCNC(=N)N)C(=O)N[C@@H](CCC(N)=O)C(=O)N[C@@H](CCC(N)=O)C(=O)N[C@@H](CC(=O)O)C(=O)N[C@@H](Cc1ccccc1)C(=O)N[C@H](C(=O)N[C@@H](CC(N)=O)C(=O)N[C@@H](Cc1c[nH]c2ccccc12)C(=O)N[C@@H](CC(C)C)C(=O)N[C@@H](CC(C)C)C(=O)N[C@@H](C)C(=O)N[C@@H](CCC(N)=O)C(=O)N[C@@H](CCCNC(=N)N)C(N)=O)C(C)C)[C@@H](C)CC` [AT149, [hGIP(3-30)NH2[H18R; K30R]-C12diacid/3]], the Emax is 50% and the EC50 is 24 nM. Turning to `CC[C@H](C)[C@H](NC(=O)[C@H](CO)NC(=O)[C@H](Cc1ccc(O)cc1)NC(=O)[C@H](CC(=O)O)NC(=O)[C@H](CO)NC(=O)[C@@H](NC(=O)[C@H](Cc1ccccc1)NC(=O)[C@@H](N)CCCCNC(=O)CCCCCCCCCCCCCCC(=O)O)[C@@H](C)CC)C(=O)N[C@@H](C)C(=O)N[C@@H](CCSC)C(=O)N[C@@H](CC(=O)O)C(=O)N[C@@H](CCCCN)C(=O)N[C@H](C(=O)N[C@@H](Cc1c[nH]cn1)C(=O)N[C@@H](CCC(N)=O)C(=O)N[C@@H](CCC(N)=O)C(=O)N[C@@H](CC(=O)O)C(=O)N[C@@H](Cc1ccccc1)C(=O)N[C@H](C(=O)N[C@@H](CC(N)=O)C(=O)N[C@@H](Cc1c[nH]c2ccccc12)C(=O)N[C@@H](CC(C)C)C(=O)N[C@@H](CC(C)C)C(=O)N[C@@H](C)C(=O)N[C@@H](CCC(N)=O)C(=O)N[C@@H](CCCCN)C(N)=O)C(C)C)[C@@H](C)CC` [AT293, [hGIP(5-30)NH2[T5KK]-C16diacid/5]], the Emax was 0%. Molecule `CC[C@H](C)[C@H](NC(=O)[C@H](CO)NC(=O)[C@H](Cc1ccc(O)cc1)NC(=O)[C@H](CC(=O)O)NC(=O)[C@H](CO)NC(=O)[C@@H](NC(=O)[C@H](Cc1ccccc1)NC(=O)[C@@H](NC(=O)CNC(=O)[C@@H](N)CCCCNC(=O)CCCCCCCCCCCCCCC(=O)O)[C@@H](C)O)[C@@H](C)CC)C(=O)N[C@@H](C)C(=O)N[C@@H](CCSC)C(=O)N[C@@H](CC(=O)O)C(=O)N[C@@H](CCCCN)C(=O)N[C@H](C(=O)N[C@@H](Cc1c[nH]cn1)C(=O)N[C@@H](CCC(N)=O)C(=O)N[C@@H](CCC(N)=O)C(=O)N[C@@H](CC(=O)O)C(=O)N[C@@H](Cc1ccccc1)C(=O)N[C@H](C(=O)N[C@@H](CC(N)=O)C(=O)N[C@@H](Cc1c[nH]c2ccccc12)C(=O)N[C@@H](CC(C)C)C(=O)N[C@@H](CC(C)C)C(=O)N[C@@H](C)C(=O)N[C@@H](CCC(N)=O)C(=O)N[C@@H](CCCCN)C(N)=O)C(C)C)[C@@H](C)CC` [AT294, [hGIP(3-30)NH2[E3K]-C16diacid/3]] displayed a maximal response (Emax) of 74%. For `CC[C@H](C)[C@H](NC(=O)[C@H](CO)NC(=O)[C@H](Cc1ccc(O)cc1)NC(=O)[C@H](CC(=O)O)NC(=O)[C@H](CO)NC(=O)[C@@H](NC(=O)[C@H](Cc1ccccc1)NC(=O)[C@@H](NC(=O)[C@H](CCCCNC(=O)CCCCCCCCCCCCCCC(=O)O)NC(=O)[C@@H](N)CCC(=O)O)[C@@H](C)O)[C@@H](C)CC)C(=O)N[C@@H](C)C(=O)N[C@@H](CCSC)C(=O)N[C@@H](CC(=O)O)C(=O)N[C@@H](CCCCN)C(=O)N[C@H](C(=O)N[C@@H](Cc1c[nH]cn1)C(=O)N[C@@H](CCC(N)=O)C(=O)N[C@@H](CCC(N)=O)C(=O)N[C@@H](CC(=O)O)C(=O)N[C@@H](Cc1ccccc1)C(=O)N[C@H](C(=O)N[C@@H](CC(N)=O)C(=O)N[C@@H](Cc1c[nH]c2ccccc12)C(=O)N[C@@H](CC(C)C)C(=O)N[C@@H](CC(C)C)C(=O)N[C@@H](C)C(=O)N[C@@H](CCC(N)=O)C(=O)N[C@@H](CCCCN)C(N)=O)C(C)C)[C@@H](C)CC` [AT295, [hGIP(3-30)NH2[G4K]-C16diacid/4]], the maximum response (Emax) came out at 78.6% and the EC50 stood at 2.6 nM. As to `CC[C@H](C)[C@H](NC(=O)[C@H](CO)NC(=O)[C@H](CCCCNC(=O)CCCCCCCCCCCCCCC(=O)O)NC(=O)[C@H](CC(=O)O)NC(=O)[C@H](CO)NC(=O)[C@@H](NC(=O)[C@H](Cc1ccccc1)NC(=O)[C@@H](NC(=O)CNC(=O)[C@@H](N)CCC(=O)O)[C@@H](C)O)[C@@H](C)CC)C(=O)N[C@@H](C)C(=O)N[C@@H](CCSC)C(=O)N[C@@H](CC(=O)O)C(=O)N[C@@H](CCCCN)C(=O)N[C@H](C(=O)N[C@@H](Cc1c[nH]cn1)C(=O)N[C@@H](CCC(N)=O)C(=O)N[C@@H](CCC(N)=O)C(=O)N[C@@H](CC(=O)O)C(=O)N[C@@H](Cc1ccccc1)C(=O)N[C@H](C(=O)N[C@@H](CC(N)=O)C(=O)N[C@@H](Cc1c[nH]c2ccccc12)C(=O)N[C@@H](CC(C)C)C(=O)N[C@@H](CC(C)C)C(=O)N[C@@H](C)C(=O)N[C@@H](CCC(N)=O)C(=O)N[C@@H](CCCCN)C(N)=O)C(C)C)[C@@H](C)CC` [AT301, [hGIP(3-30)NH2[Y10K]-C16diacid/10]] (H-EGTFISDK(C16 diacid)SIAMDKIHQQDFVNWLLAQK-NH2; N-terminus assumed), the Emax was determined as 8.5% and the EC50 worked out at 12 nM.

On to `CC[C@H](C)[C@H](NC(=O)[C@H](CCCCNC(=O)CCCCCCCCCCCCCCC(=O)O)NC(=O)[C@H](Cc1ccc(O)cc1)NC(=O)[C@H](CC(=O)O)NC(=O)[C@H](CO)NC(=O)[C@@H](NC(=O)[C@H](Cc1ccccc1)NC(=O)[C@@H](NC(=O)CNC(=O)[C@@H](N)CCC(=O)O)[C@@H](C)O)[C@@H](C)CC)C(=O)N[C@@H](C)C(=O)N[C@@H](CCSC)C(=O)N[C@@H](CC(=O)O)C(=O)N[C@@H](CCCCN)C(=O)N[C@H](C(=O)N[C@@H](Cc1c[nH]cn1)C(=O)N[C@@H](CCC(N)=O)C(=O)N[C@@H](CCC(N)=O)C(=O)N[C@@H](CC(=O)O)C(=O)N[C@@H](Cc1ccccc1)C(=O)N[C@H](C(=O)N[C@@H](CC(N)=O)C(=O)N[C@@H](Cc1c[nH]c2ccccc12)C(=O)N[C@@H](CC(C)C)C(=O)N[C@@H](CC(C)C)C(=O)N[C@@H](C)C(=O)N[C@@H](CCC(N)=O)C(=O)N[C@@H](CCCCN)C(N)=O)C(C)C)[C@@H](C)CC` [AT302, [hGIP(3-30)NH2[S11K]-C16diacid/11]] (H-EGTFISDYK(C16 diacid)IAMDKIHQQDFVNWLLAQK-NH2; N-terminus assumed), for which, under “intrinsic cAMP activity”, the “cAMP agonism Emax” value was “no ag”.
